# Laboratory results taken from patent US7923561B2 (Hoffmann-La Roche Inc., priority 2006, dated 2011).
# Target: T1, recombinant human 5-HT5A receptor (Homo sapiens, UniProt P47898)
# T1 construct: expressed in transfected cells; host or cells: HEK-EBNA (Human Embryonic Kidney-EBNA) cells, transient cDNA expression, membranes
# Assay: [3H]LSD radioligand binding assay, membranes of HEK-EBNA cells transiently expressing 5-HT5A receptors
# Settings: [3H]LSD approx. 1 nM, SPA beads, 120 min at room temperature; Ki from IC50 by Cheng-Prussoff equation
# Method: A [^3H]LSD radioligand binding assay was used to determine the affinity of the compounds for the recombinant human 5-HT5A receptor, in membranes from transiently (cDNA) expressed 5-HT5A receptors in Human Embryonic Kidney-EBNA (HEK-EBNA) cells. Assay buffer consisted of Tris (50 mM) buffer containing 1 mM EGTA, 10 mM MgCl2 (pH 7.4) and 10 μM pargyline. The binding assay was carried out in 96-well-plates in the presence of [^3H]LSD (approximately 1 nM), approximately 2 μg/well of membrane protein, and 0.5 mg of Ysi-poly-1-lysine SPA beads in a final volume of 200 μl of buffer. Non-specific binding was defined using methiothepin 2 μM. Compounds were tested at 10 concentrations. All assays were conducted in duplicate and repeated at least two times. Assay plates were incubated for 120 min at room temperature before centrifugation. Bound ligand was determined using a Packard Topcount scintillation counter. IC50 values were calculated using a non-linear curve fitting program and Ki values calculated using the Cheng-Prussoff equation.
# T1 sequence (P47898 whole entry): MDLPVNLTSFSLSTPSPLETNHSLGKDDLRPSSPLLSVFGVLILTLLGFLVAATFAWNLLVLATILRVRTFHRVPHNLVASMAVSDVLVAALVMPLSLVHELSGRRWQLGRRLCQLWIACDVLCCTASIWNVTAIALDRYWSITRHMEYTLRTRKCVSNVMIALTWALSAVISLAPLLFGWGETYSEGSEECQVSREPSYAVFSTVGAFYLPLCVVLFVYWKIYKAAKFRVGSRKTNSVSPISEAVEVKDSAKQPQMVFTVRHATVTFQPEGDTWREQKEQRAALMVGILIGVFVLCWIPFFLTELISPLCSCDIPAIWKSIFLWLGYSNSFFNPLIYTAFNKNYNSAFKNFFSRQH
row,Compound,Ki [nM]
1,"Cc1ccc(C(=NO)c2cccc3nc(N[C@@H]4CCc5ccccc54)ccc23)cc1 [Example 99, [2-((R)-Indan-1-ylamino)-(4-methyl-phenyl)-quinolin-5-yl]-methanone oxime]",1.8
2,"c1cncc(CNc2cccc3nc(N[C@@H]4CCc5ccccc54)ccc23)c1 [Example 12, N2-(R)-Indan-1-yl-N5-pyridin-3-ylmethyl-quinoline-2,5-diamine]",5.13
3,"O=S(=O)(Nc1cccc2nc(NC3CCCc4ccccc43)ccc12)c1cc(F)cc(F)c1 (racemic) [Example 62, rac-3,5-Difluoro-N-[2-(1,2,3,4-tetrahydro-naphthalen-1-ylamino)-quinolin-5-yl]-benzenesulfonamide]",60.7
4,"c1ccc2c(c1)CC[C@H]2Nc1ccc2c(NCc3cc[nH]n3)cccc2n1 [Example 50, N2-(R)-Indan-1-yl-N5-(1H-pyrazol-3-ylmethyl)-quinoline-2,5-diamine]",13.6
5,"c1ccc2c(c1)CC[C@H]2Nc1ccc2c(Nc3cccc4[nH]ccc34)cccc2n1 [Example 71, N2-(R)-Indan-1-yl-N5-(1H-indol-4-yl)-quinoline-2,5-diamine]",2.94
6,"COc1ccc(C(=NO)c2cccc3nc(N[C@@H]4CCc5ccccc54)ccc23)cc1 [Example 95, [2-((R)-Indan-1-ylamino)-(4-methoxy-phenyl)-quinolin-5-yl]-methanone oxime]",4.11
7,"O=S(=O)(Nc1cccc2nc(NC3COc4ccccc43)ccc12)c1cc(F)cc(F)c1 (single isomer, unassigned; (+)) [Example 41, (+)-N-{2-[(2,3-Dihydro-benzofuran-3-yl)amino]-quinolin-5-yl}-3,5-difluoro-benzenesulfonamide]",22.9
8,"c1cncc(-c2cccc3nc(N[C@@H]4CCc5ccccc54)ccc23)c1 [Example 66, (R)-Indan-1-yl-(5-pyridin-3-yl-quinolin-2-yl)-amine]",320
9,"COc1cccc2c1C(Nc1ccc3c(NS(=O)(=O)c4cc(F)c(F)c(F)c4)cccc3n1)CC2 (racemic) [Example 19, rac-3,4,5-Trifluoro-N-[2-(7-methoxy-indan-1-ylamino)-quinolin-5-yl]-benzenesulfonamide]",7.18
10,"O=C(Nc1cccc2nc(N[C@@H]3CCc4ccccc43)ccc12)c1cc(F)cc(F)c1 [Example 45, 3,5-Difluoro-N-[2-((R)-indan-1-ylamino)-quinolin-5-yl]-benzamide]",97.7
11,"COc1ccc2c(c1)C(Nc1ccc3c(NS(=O)(=O)c4ccc(F)cc4)cccc3n1)CC2 (single isomer, unassigned; (+)) [Example 33, (+)-4-Fluoro-N-[2-(6-methoxy-indan-1-ylamino)-quinolin-5-yl]-benzenesulfonamide]",12
12,"N=C(c1ccccc1)c1cccc2nc(N[C@@H]3CCc4ccccc43)ccc12 [Example 84, [5-(Imino-phenyl-methyl)-quinolin-2-yl]-(R)-indan-1-yl-amine]",17.1
13,"Fc1ccc(Oc2cccc3nc(N[C@@H]4CCc5ccccc54)ccc23)cc1 [Example 9, [5-(4-Fluoro-phenoxy)-quinolin-2-yl]-(R)-indan-1-yl-amine]",90.9
14,"O=C(c1ccccc1)c1cccc2nc(N[C@@H]3CCc4ccccc43)ccc12 [Example 85, [2-((R)-Indan-1-ylamino)-quinolin-5-yl]-phenyl-methanone]",24.1
15,"CN(c1cccc2nc(N[C@@H]3CCc4ccccc43)ccc12)S(=O)(=O)c1ccc(F)cc1 [Example 8, 4-Fluoro-N-[2-((R)-indan-1-ylamino)-quinolin-5-yl]-N-methyl-benzenesulfonamide]",13.5
16,"COc1ccc2c(c1)C(Nc1ccc3c(NCc4cc(F)cc(F)c4)cccc3n1)CC2 (single isomer, unassigned; (+)) [Example 35, (+)-N5-(3,5-Difluoro-benzyl)-N2-(6-methoxy-indan-1-yl)-quinoline-2,5-diamine]",7.81
17,"COc1cccc2c1C(Nc1ccc3c(NCc4cccc5[nH]ccc45)cccc3n1)CCC2 (racemic) [Example 70, Rac-N5-(1H-Indol-4-ylmethyl)-N2-(8-methoxy-1,2,3,4-tetrahydro-naphthalen-1-yl)-quinoline-2,5-diamine]",15.9
18,"O=S(=O)(Nc1ccc(F)cc1)Nc1cccc2nc(N[C@@H]3CCc4ccccc43)ccc12 [Example 86, N-{2-[(1R)-2,3-dihydro-1H-inden-1-ylamino]quinolin-5-yl}-N′-(4-fluorophenyl)sulfamide]",10
19,"COc1ccc2c(c1)C(Nc1ccc3c(NCc4cccnc4)cccc3n1)CC2 (racemic) [Example 23, rac-N2-(6-Methoxy-indan-1-yl)-N5-pyridin-3-ylmethyl-quinoline-2,5-diamine]",23.5
20,"c1cncc(CNc2cccc3nc(NC4COc5ccccc54)ccc23)c1 (racemic) [Example 18, rac-N2-(2,3-Dihydro-benzofuran-3-yl)-N5-pyridin-3-ylmethyl-quinoline-2,5-diamine]",22.1
21,"c1ccc2c(c1)CC[C@H]2Nc1ccc2c(Nc3ccc4cc[nH]c4c3)cccc2n1 [Example 73, N2-(R)-Indan-1-yl-N5-(1H-indol-6-yl)-quinoline-2,5-diamine]",4.7
22,"c1cncc(COc2cccc3nc(N[C@@H]4CCc5ccccc54)ccc23)c1 [Example 4, (R)-Indan-1-yl-[5-(pyridin-3-ylmethoxy)-quinolin-2-yl]-amine]",37.3
23,"CN(C)CCOc1ccccc1CNc1cccc2nc(N[C@@H]3CCc4ccccc43)ccc12 [Example 64, N5-[2-(2-Dimethylamino-ethoxy)-benzyl]-N2-(R)-indan-1-yl-quinoline-2,5-diamine]",6.03
24,"COc1ccc2c(c1)C(Nc1ccc3c(NCc4cccnc4)cccc3n1)CC2 (single isomer, unassigned; (+)) [Example 37, (+)-N2-(6-Methoxy-indan-1-yl)-N5-pyridin-3-ylmethyl-quinoline-2,5-diamine]",17.8
25,"COc1cccc2c1C(Nc1ccc3c(NCc4cccc5[nH]ccc45)cccc3n1)CC2 (racemic) [Example 57, rac-N5-(1H-Indol-4-ylmethyl)-N2-(7-methoxy-indan-1-yl)-quinoline-2,5-diamine]",3.7
26,"O=S(=O)(Nc1cccc2nc(N[C@@H]3CCc4ccccc43)ccc12)c1cc(F)c(F)c(F)c1 [Example 16, 3,4,5-Trifluoro-N-[2-((R)-indan-1-ylamino)-quinolin-5-yl]-benzenesulfonamide]",11.1
27,"c1ccc2c(c1)CC[C@H]2Nc1ccc2c(-c3cccc4[nH]ccc34)cccc2n1 [Example 74, (R)-Indan-1-yl-[5-(1H-indol-4-yl)-quinolin-2-yl]-amine]",41.7
28,"N=C(c1ccc(F)cc1)c1cccc2nc(N[C@@H]3CCc4ccccc43)ccc12 [Example 82, {5-[(4-Fluoro-phenyl)-imino-methyl]-quinolin-2-yl}-(R)-indan-1-yl-amine]",7.82
29,"CON=C(c1ccc(C)cc1)c1cccc2nc(N[C@@H]3CCc4ccccc43)ccc12 [Example 98, [2-((R)-Indan-1-ylamino)-(4-methyl-phenyl)-quinolin-5-yl]-methanone O-methyl-oxime]",49.8
30,"COc1ccc2c(c1)C(Nc1ccc3c(NCc4cc(F)cc(F)c4)cccc3n1)CC2 (racemic) [Example 29, rac-N5-(3,5-Difluoro-benzyl)-N2-(6-methoxy-indan-1-yl)-quinoline-2,5-diamine]",9.72
